US8415469B2, “Compounds and methods for kinase modulation, and indications therefor” (Plexxikon Inc., priority 2005, dated 2013)

Key:
Type in all cases: biochemical
Ret = target: T1, Ret (Homo sapiens, UniProt P07949); experiment: AlphaScreen kinase assay, Ret; settings: read-out: IC50, activity toward kinase Ret
T1 construct: P1378.pET-SF BI-PTP RET H661-R1012 HIS; made in house
T1 sequence (P07949 with tags, fused parts or gaps): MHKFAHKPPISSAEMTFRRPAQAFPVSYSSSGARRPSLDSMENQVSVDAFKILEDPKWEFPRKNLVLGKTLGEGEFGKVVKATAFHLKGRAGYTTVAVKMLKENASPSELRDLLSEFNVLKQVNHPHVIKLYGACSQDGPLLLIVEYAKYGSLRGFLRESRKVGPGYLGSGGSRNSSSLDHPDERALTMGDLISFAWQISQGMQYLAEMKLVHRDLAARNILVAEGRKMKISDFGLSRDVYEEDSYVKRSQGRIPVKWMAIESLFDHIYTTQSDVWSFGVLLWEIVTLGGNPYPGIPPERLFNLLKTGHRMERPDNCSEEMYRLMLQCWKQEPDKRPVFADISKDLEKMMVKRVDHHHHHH
Text: (§1) AlphaScreen assay was used to screen additional kinases. The assay is similarly dependent on the phosphorylation of a peptide substrate. In this assay, an antibody that recognizes phosphorylated substrate is bound to an acceptor bead. The peptide substrate is attached to biotin, which binds to a donor head that contains streptavidin. Thus phosphorylated substrate is bound by antibody and streptavidin, bringing the donor and acceptor heads into close proximity when kinase is not inhibited. The donor produces singlet oxygen which results in emission from the acceptor when they are in close proximity. Conversely, when kinase is inhibited, the donor and acceptor beads are not associated and the emission from the acceptor is reduced.
(§2) AlphaScreen assays were done using compounds dissolved in DMSO to a concentration of 20 mM. The compounds were diluted accordingly to the desired final concentrations in each sample well, using 1:3 serial dilution for a total of 8 concentration points. Plates were prepared such that each kinase reaction is 20 μl in 1× kinase buffer, 5% DMSO and 10 μM ATP. After incubation of the kinase reaction for 1 hour at room temperature, 5 μl of donor beads in stop buffer (50 mM EDTA in 1× kinase buffer) was added, the sample was mixed and incubated for 20 minutes at room temperature before adding 5 μl of acceptor beads in stop buffer. The samples were incubated for 60 minutes at room temperature and the signal per well was read on AlphaQuest reader.

Fms = target: T2, Fms (Homo sapiens, UniProt P07333); experiment: AlphaScreen kinase assay, Fms; settings: read-out: IC50, activity toward kinase Fms
T2 construct: purchased Upstate Biotechnology
T2 sequence (P07333 20-972): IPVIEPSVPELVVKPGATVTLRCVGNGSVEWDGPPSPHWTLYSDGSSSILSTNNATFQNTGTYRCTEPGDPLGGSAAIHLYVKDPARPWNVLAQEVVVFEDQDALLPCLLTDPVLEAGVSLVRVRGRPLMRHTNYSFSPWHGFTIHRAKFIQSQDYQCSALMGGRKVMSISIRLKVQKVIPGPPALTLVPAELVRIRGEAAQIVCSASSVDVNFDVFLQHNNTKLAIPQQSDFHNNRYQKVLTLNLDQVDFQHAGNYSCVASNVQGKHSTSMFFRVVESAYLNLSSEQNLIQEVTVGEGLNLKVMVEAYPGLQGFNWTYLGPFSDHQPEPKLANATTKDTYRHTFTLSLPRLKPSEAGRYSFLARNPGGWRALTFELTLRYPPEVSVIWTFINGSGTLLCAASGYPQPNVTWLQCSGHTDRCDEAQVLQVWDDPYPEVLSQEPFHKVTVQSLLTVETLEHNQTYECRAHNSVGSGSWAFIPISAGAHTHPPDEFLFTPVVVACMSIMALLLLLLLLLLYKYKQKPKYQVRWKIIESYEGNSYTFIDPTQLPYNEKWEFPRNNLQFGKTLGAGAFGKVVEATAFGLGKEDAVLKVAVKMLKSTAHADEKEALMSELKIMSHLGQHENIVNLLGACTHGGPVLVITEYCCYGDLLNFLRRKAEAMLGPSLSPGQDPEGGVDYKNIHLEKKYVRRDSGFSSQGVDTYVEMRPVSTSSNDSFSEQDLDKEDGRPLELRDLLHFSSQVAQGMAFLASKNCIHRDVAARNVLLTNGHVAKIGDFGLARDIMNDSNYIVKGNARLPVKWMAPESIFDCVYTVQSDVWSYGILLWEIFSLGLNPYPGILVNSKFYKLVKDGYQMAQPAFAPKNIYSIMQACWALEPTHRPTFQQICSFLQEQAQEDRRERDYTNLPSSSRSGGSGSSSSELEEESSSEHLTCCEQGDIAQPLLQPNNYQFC

B-Raf V600E = target: T3, B-Raf V600E (Homo sapiens, UniProt P15056, V600E); experiment: AlphaScreen kinase assay, B-Raf V600E; settings: read-out: IC50, activity toward kinase B-Raf V600E
T3 construct: P4254. pFastBacBD-CDC37 BRAF D437-K722-X, V600E; His6 with pFastBac HT leader (TEV site) (N); made in house; host or cells: Sf9 (baculovirus; chaperone CDC37 co-expressed)
T3 sequence (P15056 with tags, fused parts or gaps V600E): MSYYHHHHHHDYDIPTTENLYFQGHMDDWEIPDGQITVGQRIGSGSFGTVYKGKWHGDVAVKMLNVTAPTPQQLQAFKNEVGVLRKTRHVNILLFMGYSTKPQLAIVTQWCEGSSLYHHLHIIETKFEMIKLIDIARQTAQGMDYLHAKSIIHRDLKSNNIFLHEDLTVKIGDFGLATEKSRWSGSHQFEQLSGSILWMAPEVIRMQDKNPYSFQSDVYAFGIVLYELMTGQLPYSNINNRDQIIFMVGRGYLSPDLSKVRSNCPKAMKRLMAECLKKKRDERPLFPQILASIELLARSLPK
Text: as §1, §2

B-Raf = target: T4, B-Raf (Homo sapiens, UniProt P15056); experiment: AlphaScreen kinase assay, B-Raf; settings: read-out: IC50, activity toward kinase B-Raf
T4 construct: purchased Upstate Biotechnology
T4 sequence (P15056 whole entry): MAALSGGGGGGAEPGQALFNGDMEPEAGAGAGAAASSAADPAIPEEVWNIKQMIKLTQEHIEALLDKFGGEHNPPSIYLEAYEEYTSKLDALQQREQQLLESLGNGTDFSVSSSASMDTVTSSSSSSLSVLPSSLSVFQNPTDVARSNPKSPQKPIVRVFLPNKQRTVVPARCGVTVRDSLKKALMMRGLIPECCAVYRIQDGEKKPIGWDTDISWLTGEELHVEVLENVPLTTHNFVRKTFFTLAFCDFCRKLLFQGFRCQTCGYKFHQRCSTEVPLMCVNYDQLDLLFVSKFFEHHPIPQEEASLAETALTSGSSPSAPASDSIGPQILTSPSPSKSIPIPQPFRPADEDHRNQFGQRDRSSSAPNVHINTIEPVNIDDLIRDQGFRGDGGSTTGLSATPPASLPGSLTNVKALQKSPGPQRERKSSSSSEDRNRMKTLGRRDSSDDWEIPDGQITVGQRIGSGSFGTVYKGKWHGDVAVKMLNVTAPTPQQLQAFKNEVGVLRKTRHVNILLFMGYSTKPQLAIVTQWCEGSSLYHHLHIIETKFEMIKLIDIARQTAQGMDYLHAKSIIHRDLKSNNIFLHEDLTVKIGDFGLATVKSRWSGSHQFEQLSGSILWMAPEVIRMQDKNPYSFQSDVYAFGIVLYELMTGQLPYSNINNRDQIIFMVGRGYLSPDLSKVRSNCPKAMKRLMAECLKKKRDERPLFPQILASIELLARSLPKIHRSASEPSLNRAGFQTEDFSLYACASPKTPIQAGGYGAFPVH

FGFR1 = target: T5, FGFR1 (Homo sapiens, UniProt P11362, C488A/C584S); experiment: AlphaScreen kinase assay, FGFR1; settings: read-out: IC50, activity toward kinase FGFR
T5 construct: P1351.pET N6 BI-PTP FGFR A458-E765-X C488A, C584S; made in house; host or cells: E. coli (PTP1B co-expressed)
T5 sequence (P11362 458-765 C488A/C584S): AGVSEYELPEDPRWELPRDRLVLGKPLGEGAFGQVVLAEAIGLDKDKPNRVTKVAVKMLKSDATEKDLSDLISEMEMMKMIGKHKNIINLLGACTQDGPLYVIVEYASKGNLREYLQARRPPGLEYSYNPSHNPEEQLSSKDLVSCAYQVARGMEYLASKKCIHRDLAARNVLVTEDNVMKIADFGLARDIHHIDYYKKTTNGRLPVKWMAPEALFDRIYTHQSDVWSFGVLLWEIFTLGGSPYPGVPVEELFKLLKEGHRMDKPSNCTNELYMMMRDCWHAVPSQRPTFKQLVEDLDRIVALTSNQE

Kit = target: T6, Kit (Homo sapiens, UniProt P10721); experiment: AlphaScreen kinase assay, Kit; settings: read-out: IC50, activity toward kinase Kit
T6 construct: P1332.N6 BI PTP KIT M552-K948-X COD; His6 (N); made in house; host or cells: E. coli (PTP1B co-expressed)
T6 sequence (P10721 with tags, fused parts or gaps): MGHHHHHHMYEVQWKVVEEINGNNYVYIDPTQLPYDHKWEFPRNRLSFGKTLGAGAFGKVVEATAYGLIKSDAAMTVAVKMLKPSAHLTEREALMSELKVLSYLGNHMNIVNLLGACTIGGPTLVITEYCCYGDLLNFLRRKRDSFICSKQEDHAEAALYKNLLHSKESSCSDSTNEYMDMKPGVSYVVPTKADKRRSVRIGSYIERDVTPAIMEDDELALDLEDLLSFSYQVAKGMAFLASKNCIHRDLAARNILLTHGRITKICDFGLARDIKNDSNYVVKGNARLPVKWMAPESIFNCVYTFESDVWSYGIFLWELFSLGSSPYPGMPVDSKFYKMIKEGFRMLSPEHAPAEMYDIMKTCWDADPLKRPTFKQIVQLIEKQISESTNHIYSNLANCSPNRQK

SMILES: CC(=O)Nc1cccc(-c2ccnc3[nH]cc(C(=O)c4ccc(Cl)cc4)c23)c1 [Compound P-1075]
- IC50 (Ret): ≤ 10 µM

SMILES: Cc1cc(C(=O)c2c[nH]c3nccc(-c4cccc(C(N)=O)c4)c23)no1 [Compound P-1036]
- IC50 (Ret): ≤ 10 µM

SMILES: Fc1cnc(F)c(F)c1Cc1c[nH]c2ncc(-c3ccsc3)cc12 [Compound P-0596]
- IC50 (Ret): ≤ 10 µM

SMILES: Cc1ccc(F)cc1C(=O)c1c[nH]c2nccc(-c3ccsc3)c12 [Compound P-1189]
- IC50 (Ret): ≤ 10 µM

SMILES: Cc1ccc(F)cc1C(=O)c1c[nH]c2nccc(-c3cccc(N)c3)c12 [Compound P-1135]
- IC50 (Ret): ≤ 10 µM

SMILES: [O-][S+](c1ccccc1)c1c[nH]c2ncc(Br)cc12 (centres unmarked) [Compound P-1097]
- IC50 (Ret): ≤ 10 µM

SMILES: COc1cccc(C(=O)c2c[nH]c3nccc(-c4ccc(Cl)cc4)c23)c1 [Compound P-1191]
- IC50 (Ret): ≤ 10 µM

SMILES: CS(=O)(=O)Nc1ccc(F)c(C(=O)c2c[nH]c3ncccc23)c1 [Compound P-0881]
- IC50 (Ret): ≤ 10 µM

SMILES: Cc1nc(-c2ccc(S(=O)(=O)NCc3c[nH]c4ncccc34)s2)cs1 [Compound P-0735]
- IC50 (Ret): ≤ 10 µM

SMILES: Cc1ccccc1C(=O)c1c[nH]c2nccc(-c3cccc(S(C)(=O)=O)c3)c12 [Compound P-1200]
- IC50 (Ret): ≤ 10 µM

SMILES: COc1ccc(F)c(C(=O)c2c[nH]c3ncc(Br)cc23)c1 [Compound P-0284]
- IC50 (Fms): ≤ 10 µM
- IC50 (B-Raf V600E): ≤ 10 µM
- IC50 (B-Raf): ≤ 10 µM
- IC50 (FGFR1): ≤ 10 µM
- IC50 (Kit): ≤ 10 µM

SMILES: COc1ccc(-c2ccnc3[nH]cc(C(=O)c4ccccc4C)c23)cn1 [Compound P-0536]
- IC50 (Ret): ≤ 10 µM

SMILES: Cc1cc(C(=O)c2c[nH]c3ncc(Br)cc23)no1 [Compound P-0608]
- IC50 (Ret): ≤ 10 µM

SMILES: CCCS(=O)(=O)Nc1ccc(F)c(C(=O)c2c[nH]c3ncc(-c4cc(C)c(C#N)c(C)c4)cc23)c1F [Compound P-1980, Propane-1-sulfonic acid {3-[5-(4-cyano-3,5-dimethyl-phenyl)-1H-pyrrolo[2,3-b]pyridine-3-carbonyl]-2,4-difluoro-phenyl}-amide]
- IC50 (Fms): ≤ 10 µM
- IC50 (B-Raf V600E): ≤ 10 µM
- IC50 (B-Raf): ≤ 10 µM
- IC50 (Kit): ≤ 10 µM

SMILES: CC(=O)Nc1cccc(-c2ccnc3[nH]cc(C(=O)c4cc(F)ccc4C)c23)c1 [Compound P-1126]
- IC50 (Ret): ≤ 10 µM

SMILES: O=C(Nc1ccc(Cl)cc1)Nc1cccc(C(=O)c2c[nH]c3ncccc23)c1 [Compound P-1709, 1-(4-Chloro-phenyl)-3-[3-(1H-pyrrolo[2,3-b]pyridine-3-carbonyl)-phenyl]-urea]
- IC50 (Fms): ≤ 10 µM
- IC50 (B-Raf V600E): ≤ 10 µM
- IC50 (B-Raf): ≤ 10 µM
- IC50 (Kit): ≤ 10 µM

SMILES: O=S(=O)(NCc1c[nH]c2ncccc12)c1cc(Br)cc(Cl)n1 [Compound P-0726]
- IC50 (Ret): ≤ 10 µM

SMILES: Cc1ccc(F)cc1C(=O)c1c[nH]c2nccc(-c3cccc(/C=C/C(=O)O)c3)c12 [Compound P-0985]
- IC50 (Ret): ≤ 10 µM

SMILES: Cn1cc(-c2cnc3[nH]cc(C(=O)c4c(F)ccc(NS(=O)(=O)c5cccc(F)c5)c4F)c3c2)cn1 [Compound P-1997, N-{2,4-Difluoro-3-[5-(1-methyl-1H-pyrazol-4-yl)-1H-pyrrolo[2,3-b]pyridine-3-carbonyl]-phenyl}-3-fluoro-benzenesulfonamide]
- IC50 (Fms): ≤ 10 µM
- IC50 (B-Raf V600E): ≤ 10 µM
- IC50 (B-Raf): ≤ 10 µM
- IC50 (Kit): ≤ 10 µM

SMILES: Cc1c(Cl)cc(F)cc1S(=O)(=O)NCc1cc2cccnc2[nH]1 [Compound P-0533]
- IC50 (Ret): ≤ 10 µM

SMILES: COc1ccc(-c2ccnc3[nH]cc(C(=O)c4cc(F)ccc4C)c23)cn1 [Compound P-1192]
- IC50 (Ret): ≤ 10 µM

SMILES: Cc1ccc(F)cc1C(=O)c1c[nH]c2nccc(-c3ccc(Cl)cc3)c12 [Compound P-1133]
- IC50 (Ret): ≤ 10 µM

SMILES: CS(=O)(=O)c1cccc(-c2ccnc3[nH]cc(C(=O)c4cccc(Cl)c4Cl)c23)c1 [Compound P-1134]
- IC50 (Ret): ≤ 10 µM

SMILES: O=C(c1c(F)ccc(NS(=O)(=O)c2ccc(F)cc2)c1F)c1c[nH]c2ncc(Cl)cc12 [Compound P-1840, N-[3-(5-Chloro-1H-pyrrolo[2,3-b]pyridine-3-carbonyl)-2,4-difluoro-phenyl]-4-fluoro-benzenesulfonamide]
- IC50 (Fms): ≤ 10 µM
- IC50 (B-Raf V600E): ≤ 10 µM
- IC50 (B-Raf): ≤ 10 µM
- IC50 (Kit): ≤ 10 µM

SMILES: COCCOc1cnc2[nH]cc(C(=O)c3c(F)ccc(NS(=O)(=O)c4ccc(F)cc4)c3F)c2c1 [Compound P-1872, N-{2,4-Difluoro-3-[5-(2-methoxy-ethoxy)-1H-1-pyrrolo[2,3-b]pyridine-3-carbonyl]-phenyl}-4-fluoro-benzenesulfonamide]
- IC50 (Fms): ≤ 10 µM
- IC50 (B-Raf V600E): ≤ 10 µM
- IC50 (B-Raf): ≤ 10 µM
- IC50 (Kit): ≤ 10 µM

SMILES: Cc1ccc(F)cc1C(=O)c1c[nH]c2nccc(-c3cccc(S(C)(=O)=O)c3)c12 [Compound P-1129]
- IC50 (Ret): ≤ 10 µM

SMILES: O=C(c1c(F)ccc(NS(=O)(=O)c2ccsc2)c1F)c1c[nH]c2ncc(Br)cc12 [Compound P-1798, Thiophene-3-sulfonic acid [3-(5-bromo-1H-pyrrolo[2,3-b]pyridine-3-carbonyl)-2,4-difluoro-phenyl]-amide]
- IC50 (Fms): ≤ 10 µM
- IC50 (B-Raf V600E): ≤ 10 µM
- IC50 (B-Raf): ≤ 10 µM
- IC50 (Kit): ≤ 10 µM

SMILES: Cc1cc(C(=O)c2c[nH]c3ncc(-c4cccc(/C=C/C(=O)O)c4)cc23)no1 [Compound P-1072]
- IC50 (Ret): ≤ 10 µM

SMILES: Cc1cc(C(=O)c2c[nH]c3nccc(-c4ccc(Cl)cc4)c23)no1 [Compound P-1178]
- IC50 (Ret): ≤ 10 µM

SMILES: Cc1ccc(F)cc1C(=O)c1c[nH]c2nccc(-c3cccnc3)c12 [Compound P-1121]
- IC50 (Ret): ≤ 10 µM

SMILES: O=C(c1ccccc1)c1c[nH]c2ncc(-c3ccsc3)cc12 [Compound P-1193]
- IC50 (Ret): ≤ 10 µM

SMILES: Cc1cc(C(=O)c2c[nH]c3nccc(-c4ccc(Cl)cc4)c23)n(C)n1 [Compound P-1196]
- IC50 (Ret): ≤ 10 µM

SMILES: COc1ccc(-c2ccnc3[nH]cc(C(=O)c4ccccc4F)c23)cn1 [Compound P-0245]
- IC50 (Ret): ≤ 10 µM

SMILES: O=C(c1cccc(Cl)c1Cl)c1c[nH]c2nccc(-c3ccc(Cl)cc3)c12 [Compound P-1130]
- IC50 (Ret): ≤ 10 µM

SMILES: Fc1ccc(-c2c(CNCc3ccccc3)[nH]c3ncccc23)cc1 [Compound P-0517]
- IC50 (Ret): ≤ 10 µM

SMILES: CS(=O)(=O)c1cccc(-c2ccnc3[nH]cc(C(=O)c4ccc(Cl)cc4)c23)c1 [Compound P-1198]
- IC50 (Ret): ≤ 10 µM

SMILES: O=S(=O)(NCc1c[nH]c2ncccc12)C(F)(F)F [Compound P-0412]
- IC50 (Ret): ≤ 10 µM

SMILES: CCCS(=O)(=O)Nc1ccc(F)c(C(=O)c2c[nH]c3ncc(-c4ccc(OCCOC)cc4)cc23)c1F [Compound P-1998, Propane-1-sulfonic acid (2,4-difluoro-3-{5-[4-(2-methoxy-ethoxy)-phenyl]-1H-pyrrolo[2,3-b]pyridine-3-carbonyl}-phenyl)-amide]
- IC50 (Fms): ≤ 10 µM
- IC50 (B-Raf V600E): ≤ 10 µM
- IC50 (B-Raf): ≤ 10 µM
- IC50 (Kit): ≤ 10 µM

SMILES: Cc1cc(C(=O)c2c[nH]c3ncc(-c4cccc(/C=C/C(=O)O)c4)cc23)nn1C [Compound P-1137]
- IC50 (Ret): ≤ 10 µM

SMILES: CS(=O)(=O)Nc1cccc(-c2ccnc3[nH]cc(C(=O)c4ccc(Cl)cc4)c23)c1 [Compound P-0678]
- IC50 (Ret): ≤ 10 µM

SMILES: Cc1ccccc1C(=O)c1c[nH]c2nccc(-c3ccc(Cl)cc3)c12 [Compound P-1201]
- IC50 (Ret): ≤ 10 µM

SMILES: Cc1cccc(NC(=O)Nc2cccc(C(=O)c3c[nH]c4ncccc34)c2)c1 [Compound P-1719, 1-[3-(1H-Pyrrolo[2,3-b]pyridine-3-carbonyl)-phenyl]-3-m-tolyl-urea]
- IC50 (Fms): ≤ 10 µM
- IC50 (B-Raf V600E): ≤ 10 µM
- IC50 (B-Raf): ≤ 10 µM
- IC50 (Kit): ≤ 10 µM

SMILES: COc1cccc(C(=O)c2c[nH]c3nccc(-c4cccc(NS(C)(=O)=O)c4)c23)c1 [Compound P-1185]
- IC50 (Ret): ≤ 10 µM
